This is an account of results in patent US20260216348A1, “IRAK DEGRADATION AGENT AND USE THEREOF” (Increland, priority 2023, published 2026).

In one test the test system is IMQ psoriasis model. Kind of test: IMQ (imiquimod)-induced psoriasis model. The class given is in vivo, BALB/c mice. To be noted: Mean ± SD, n = 7; for PASI Score d 6: Model 8.85 ± 1.66; for ΔSkin Thickness Change (μm) d 6: Model 80.95 ± 6.16. On the procedure: Male BALB/c mice, aged 6-8 weeks, were randomly divided into 9 groups after 1 week of acclimatization: blank control group, imiquimod model group (IMQ group, corresponding to the model groups in FIGS. 1 and 2), clobetasol propionate cream group (CLO group), TYKI (BMS-986165) group, IRAK4 protein degrader KT-474 (from patent WO2020113233) group (100 mg/kg), and the compound of the present disclosure (at an appropriate dose), with 6-7 mice in each group. One day before modeling, the hair on the backs of the mice was removed with depilatory cream, with a depilated area of 2×2 cm^2. On the day of modeling, IMQ cream was used for modeling, and the corresponding drugs were administered intragastrically for treatment. The compound of the present disclosure (at an appropriate dose) was administered intragastrically once daily, and IMQ cream was applied to the hairless area on the back and left ear of mice 2 h after the first administration. […] The blank group and the IMQ group were administered with vehicle intragastrically twice daily (in the morning and evening), with an 8-h interval between the two intragastric administrations. At 2 h after the first intragastric administration, vaseline and IMQ cream were applied topically to the depilated back and ears of the mice, respectively. The dosage of IMQ cream administered to the depilated area on the back and the left ear was 80 mg and 10 mg, respectively, and the mice in each group were administered the cream for 5 consecutive days.
Reference was made to the Psoriasis Area and Severity Index (PASI) scoring criteria. The psoriasis, erythema, and thickness of skin lesions on the back were scored from 0 to 4 every morning from day 1 of modeling, with the scoring criteria as shown in Table 28. The 3 were added up to obtain a total score, i.e., a total PASI score. The ear thickness of the left ear of the mouse was measured using a digital vernier caliper three times every morning from day 1 of modeling, to obtain a mean value.

Test [1] deals with LPS/IL-1β-induced IL-6 secretion in human peripheral blood mononuclear cells (PBMCs). The test is described as follows: Inhibition of LPS/IL-1β-induced IL-6 secretion in human PBMCs (IL-6 ELISA). In kind it is cell-based. To be noted: PBMC, LPS 10 ng/mL + IL-1β 20 ng/mL, 24 h pre-incubation, 20 h stimulation. Summed up:
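PBMCs preincubated 24 h at 37 °C with compounds (5-fold dilutions from 1 μM) in RPMI/10% FBS, then stimulated 20 h with LPS 10 ng/mL plus IL-1β 20 ng/mL (final). IL-6 in 200-fold diluted supernatant measured by ELISA at OD450 against a standard curve; IC50 from dose-response fitting.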

For test [2], the system named is R848-induced IL-6 secretion in human peripheral blood mononuclear cells (PBMCs). The test is described as follows: Inhibition of R848-induced IL-6 secretion in human PBMCs (IL-6 ELISA). In kind it is cell-based. To be noted: PBMC, R848 2.5 μg/mL, 20 h pre-incubation, 24 h stimulation. On the procedure:
This experiment was carried out in RPMI 1640 medium containing 10% FBS and 1% penicillin/streptomycin, with each of the compounds at an initial test concentration of 1 μM. The compound was dissolved in DMSO to prepare a stock solution, which was serially diluted into a series of working solutions with a 4-fold concentration gradient using the culture medium and then added to a 96-well plate at 10 μL per well. PBMCs (Batch No.: P122101102C; Milecell Biotechnology Inc.) were counted and diluted to a cell concentration of 1.25×10^6 cells/mL, and then added to the aforementioned compound-containing 96-well plate at 160 μL per well. The system was mixed well and incubated in a 5% CO2 incubator at 37° C. for 20 h. Then 10 μL of R848 (final concentration: 2.5 μg/mL) was added, and the culture was continued for 24 h in a 5% CO2 incubator at 37° C. After incubation, the 96-well plate was centrifuged at 2000 rpm for 4 min. The supernatant was collected and diluted 120-fold, then detected using an IL-6 ELISA kit. The OD450 values were read, and converted to IL-6 concentrations based on a standard curve.

In another test the target is T1, IRAK4 (Homo sapiens, UniProt Q9NWZ3).
T1 construct: Effect of the Compounds on IRAK4 Protein Degradation in THP1 Cells; endogenous in cells; host or cells: THP-1 cells
T1 sequence (Q9NWZ3 1-460): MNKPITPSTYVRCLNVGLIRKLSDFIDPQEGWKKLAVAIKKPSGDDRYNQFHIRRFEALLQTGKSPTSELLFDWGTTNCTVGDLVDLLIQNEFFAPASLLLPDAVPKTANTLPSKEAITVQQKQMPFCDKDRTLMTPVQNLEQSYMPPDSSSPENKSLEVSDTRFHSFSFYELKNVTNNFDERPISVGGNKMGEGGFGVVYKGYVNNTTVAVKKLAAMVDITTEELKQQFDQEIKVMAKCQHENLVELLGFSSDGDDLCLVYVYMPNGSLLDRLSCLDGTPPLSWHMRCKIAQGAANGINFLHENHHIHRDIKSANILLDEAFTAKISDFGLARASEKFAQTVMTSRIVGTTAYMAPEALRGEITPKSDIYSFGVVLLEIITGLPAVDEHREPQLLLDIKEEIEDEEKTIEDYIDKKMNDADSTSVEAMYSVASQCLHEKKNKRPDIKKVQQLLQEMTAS
The test is described as follows: IRAK4 protein degradation in THP1 cells (Western blot). The class given is cell-based. To be noted: THP-1 cells, 24 h. A digest of the protocol:
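THP-1 cells (2×10^5/well) were treated with 5-fold serial compound dilutions for 24 h at 37 °C, then lysed with proteasome/phosphatase inhibitors. IRAK4 was detected by Western blot with chemiluminescence and semi-quantified by densitometry. DC50 came from the concentration–response.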
(A western blot detects proteins with antibodies after separation by electrophoresis.)

The term IC50 denotes the concentration that inhibits the measured activity by half. Broadly, the DC50 is the midpoint of the concentration-degradation curve. Low values mean a more potent degrader, high ones a less potent degrader.

Take `CCC(=O)O[C@]1(C(=O)CCl)[C@@H](C)C[C@H]2[C@@H]3CCC4=CC(=O)C=C[C@]4(C)[C@@]3(F)[C@@H](O)C[C@@]21C` [CLO, Clobetasol propionate, reference compound]: in the test with IMQ psoriasis model (160 mg/animal), the “PASI Score d 6” value was 1.17 ± 0.85 and the “ΔSkin Thickness Change (μm) d 6” value is −18.10 ± 6.33 μm.

For `Cn1c(=O)n(C2CCC(=O)NC2=O)c2cccc(C#CCOC3CCN(C[C@H]4CC[C@H](n5cc(NC(=O)c6cnn7ccc(N8C[C@H]9C[C@@H]8CO9)nc67)c(C(F)F)n5)CC4)CC3)c21` (stereo partly drawn) [Positive compound, reference compound], the values for the IC50 in test [1] and in test [2] were 2.99 nM and 12.1 nM, respectively.

`CN(C)c1cc2nn([C@H]3CC[C@H](CN4CC[C@@H](n5cc6cc(C7CCC(=O)NC7=O)ccc6n5)[C@H](F)C4)CC3)cc2cc1NC(=O)c1cnn2cccnc12` (stereo partly drawn) [TM-167] gave a concentration for half-maximal inhibition (IC50) in test [2] of 4.3 nM. For the same compound, the 50% degradation concentration (DC50) on IRAK4 is 1.17 nM.

As for `CN(C)c1cc2nn([C@H]3CC[C@H](CN4CCC(c5nc6cc(N7CCC(=O)NC7=O)ccc6o5)CC4)CC3)cc2cc1NC(=O)c1cnn2cccnc12` [TM-185], the IC50 in test [2] was 8.82 nM. Also, the DC50 on IRAK4 worked out at 3.22 nM.

For the compound `CN(C)c1cc2nn([C@H]3CC[C@H](CN4CCC(n5cc6cc(NC7CCC(=O)NC7=O)ccc6n5)CC4)CC3)cc2cc1NC(=O)c1cnn2cccnc12` (stereo partly drawn) [TM-196], in test [2], the IC50 stood at 2.94 nM. The 50% degradation concentration (DC50) at IRAK4 came to 2.84 nM.

In test [2], `CN(C)c1cc2nn([C@H]3CC[C@H](CN4CC[C@H](n5cc6ccc(N7CCC(=O)NC7=O)cc6n5)C4)CC3)cc2cc1NC(=O)c1cnn2cccnc12` [TM-197] had a 50% inhibitory concentration (IC50) of 4.93 nM. Further, it took 3.29 nM to reach half-maximal degradation at IRAK4 (DC50).

Compound `CN(C)c1cc2nn([C@H]3CC[C@H](CN4CC[C@@H](n5cc6ccc(N7CCC(=O)NC7=O)cc6n5)C4)CC3)cc2cc1NC(=O)c1cnn2cccnc12` [TM-198] had a 50% inhibitory concentration (IC50) in test [2] of 20.8 nM. At IRAK4, this compound came in with a DC50 of 0.86 nM.

As to `CN(C)c1cc2nn([C@H]3CC[C@H](CN4C[C@@H](n5cc6ccc(N7CCC(=O)NC7=O)cc6n5)[C@@H](F)C4)CC3)cc2cc1NC(=O)c1cnn2cccnc12` [TM-199], the half-maximal inhibitory concentration (IC50) in test [2] was found to be 25.6 nM. The half-maximal degradation concentration (DC50) on IRAK4 was 0.87 nM.

Consider `CN(C)c1cc2nn([C@H]3CC[C@H](CN4C[C@@H](F)[C@@H](n5cc6ccc(N7CCC(=O)NC7=O)cc6n5)C4)CC3)cc2cc1NC(=O)c1cnn2cccnc12` [TM-202], for which the concentration for half-maximal inhibition (IC50) in test [2] came out at 3.61 nM. At IRAK4, this compound yielded a DC50 of 0.95 nM.

With `CN(C)c1cc2nn([C@H]3CC[C@H](CN4C[C@H](F)[C@@H](n5cc6cc(N7CCC(=O)NC7=O)ccc6n5)C4)CC3)cc2cc1NC(=O)c1cnn2cccnc12` [TM-207], the values for the IC50 in test [1] and in test [2] were 40.9 nM and 10.3 nM, respectively.

Regarding `CN(C)c1cc2nn(C3CCC(CN4C[C@@H](F)[C@H](n5cc6cc(N7CCC(=O)NC7=O)ccc6n5)C4)CC3)cc2cc1NC(=O)c1cnn2cccnc12` (stereo partly drawn) [TM-208], in test [2], the 50% inhibitory concentration (IC50) stood at 10.8 nM. Further, half-maximal degradation at IRAK4 (DC50) was put at 3.77 nM.

Turning to `CN(C)c1cc2nn([C@H]3CC[C@H](CN4CCC[C@@H](n5cc6cc(N7CCC(=O)NC7=O)ccc6n5)C4)CC3)cc2cc1NC(=O)c1cnn2cccnc12` [TM-211], the 50% inhibitory concentration (IC50) in test [2] was 1.73 nM. Further, the DC50 at IRAK4 came out at 3.23 nM.

As for `CN(C)c1cc2nc([C@H]3CC[C@H](CN4C[C@@H](n5cc6cc(N7CCC(=O)NC7=O)ccc6n5)[C@@H](F)C4)CC3)cn2cc1NC(=O)c1cnn2cccnc12` [TM-230], in test [2], the half-maximal inhibitory concentration (IC50) was 6.97 nM. This compound also registered a DC50 on IRAK4 of 1.42 nM.

Consider `CN(C)c1cc2nc([C@H]3CC[C@H](CN4CCC(n5cc6c(F)cc(N7CCC(=O)NC7=O)cc6n5)CC4)CC3)cn2cc1NC(=O)c1cnn2cccnc12` [TM-231], for which, in test [2], 11.6 nM corresponded to half-maximal inhibition (IC50). The compound further had a 50% degradation concentration (DC50) on IRAK4 of less than 1 nM.

`CN(C)c1cc2nn([C@H]3CC[C@H](CN4C[C@@H](n5cc6cc(N7CCC(=O)NC7=O)c(F)cc6n5)[C@@H](F)C4)CC3)cc2cc1NC(=O)c1cnn2cccnc12` [TM-232] displayed an IC50 in test [2] of 18.9 nM.

For `CN(C)c1cc2nn([C@H]3CC[C@H](CN4C[C@@H](n5cc6cc(C7CCC(=O)NC7=O)ccc6n5)[C@@H](F)C4)CC3)cc2cc1NC(=O)c1cnn2cccnc12` (stereo partly drawn) [TM-234], the 50% inhibitory concentration (IC50) in test [1] was 8.16 nM; in test [2], 14.4 nM.

In test [2], `CN(C)c1cc2nn([C@H]3CC[C@H](CN4CC[C@@H](n5cc6c(F)cc(C7CCC(=O)NC7=O)cc6n5)C4)CC3)cc2cc1NC(=O)c1cnn2cccnc12` (stereo partly drawn) [TM-235] returned a 50% inhibitory concentration (IC50) of 6.08 nM.

In test [2], `CN(C)c1nc2nc([C@H]3CC[C@H](CN4C[C@@H](n5cc6cc(N7CCC(=O)NC7=O)ccc6n5)[C@@H](F)C4)CC3)cn2cc1NC(=O)c1cnn2cccnc12` [TM-236] gave an IC50 of 22.4 nM.

For `CN(C)c1cc2nn([C@H]3CC[C@H](CN4C[C@@H](F)[C@H](n5cc6c(F)cc(C7CCC(=O)NC7=O)cc6n5)C4)CC3)cc2cc1NC(=O)c1cnn2cccnc12` (stereo partly drawn) [TM-237], the IC50 in test [1] was found to be 16.5 nM; in test [2], 25 nM.

Compound `CN(C)c1cc2nn([C@H]3CC[C@H](CN4CCC(c5nc6cc(C7CCC(=O)NC7=O)cc(F)c6o5)CC4)CC3)cc2cc1NC(=O)c1cnn2cccnc12` (stereo partly drawn) [TM-238] displayed an IC50 in test [2] of 4.18 nM.

`CN(C)c1cc2nn([C@H]3CC[C@H](CN4C[C@@H](F)[C@@H](n5cc6cc(N7CCC(=O)NC7=O)c(F)cc6n5)C4)CC3)cc2cc1NC(=O)c1cnn2cccnc12` [TM-239]: the IC50 stood at 7.31 nM in test [1] and 10.4 nM in test [2].

For the compound `CN(C)c1cc2nn([C@H]3CC[C@H](CN4C[C@H](F)[C@@H](n5cc6cc(C7CCC(=O)NC7=O)ccc6n5)C4)CC3)cc2cc1NC(=O)c1cnn2cccnc12` (stereo partly drawn) [TM-243], the IC50 in test [1] was determined as 3.96 nM; in test [2] it was 7.67 nM.

Consider “Deucravacitinib [TYKi, reference compound]”, for which, in the test on IMQ psoriasis model (30 mg/kg, BID), the “PASI Score d 6” value was 4.32 ± 2.42 and the “ΔSkin Thickness Change (μm) d 6” value worked out at 53.57 ± 15.87 μm.
